pEC50: −log10 of the molar value.
Legend:
Plasmodium falciparum [1] = assay: NOVARTIS: Inhibition of Plasmodium falciparum W2 (drug-resistant) proliferation in erythrocyte-based infection assay; assay type: functional, organism-based; conditions: Plasmodium falciparum, W2; read-out: EC50
[2] = NOVARTIS: Cytotoxicity against human hepatocellular carcinoma cell line (Huh7); assay type: toxicity, cell-based, Huh-7; conditions: Huh7 cells (hepatocellular carcinoma cell line)
Plasmodium falciparum [3] = assay: NOVARTIS: Inhibition of Plasmodium falciparum 3D7 (drug-susceptible) proliferation in erythrocyte-based infection assay; assay type: functional, organism-based; conditions: Plasmodium falciparum, 3D7

Structure (SMILES): CN(C)CCCNc1c2ccccc2nc2ccccc12
- pEC50 (Plasmodium falciparum [1]): 6.41
- CC50 [2]: 8.45 µM
- pEC50 (Plasmodium falciparum [3]): 7.49

Structure (SMILES): c1ccc(-c2nc(NCCCn3ccnc3)cc(-c3ccncc3)n2)cc1
- pEC50 (Plasmodium falciparum [1]): 6.34
- CC50 [2]: > 10 µM
- pEC50 (Plasmodium falciparum [3]): 6.62

Structure (SMILES): CN(C)CCn1c(=N)n(CC(O)c2ccc(Cl)c(Cl)c2)c2ccccc21 (centres undefined)
- pEC50 (Plasmodium falciparum [1]): 6.34
- CC50 [2]: > 10 µM
- pEC50 (Plasmodium falciparum [3]): 6.59

Structure (SMILES): O=C(Cn1c2ccccc2c(=O)c2ccc(Cl)cc21)Nc1ccc(C(F)(F)F)cc1
- pEC50 (Plasmodium falciparum [1]): 5.34
- CC50 [2]: > 100 µM
- pEC50 (Plasmodium falciparum [3]): 5.01

Structure (SMILES): COc1cc(NC(C)CCCN(Cc2ccc(OC)c(OC)c2)C(=O)c2ccc3ccccc3c2)c2ncccc2c1 (centres undefined)
- pEC50 (Plasmodium falciparum [1]): 6.61
- CC50 [2]: 5.33 µM
- pEC50 (Plasmodium falciparum [3]): 6.39

Structure (SMILES): CC[C@@H](C(=O)[C@@H](C)[C@@H](O)[C@H](C)CCc1ccc(C)c(O)c1C(=O)O)[C@H]1O[C@](CC)([C@H]2CC[C@](O)(CC)[C@@H](C)O2)C[C@@H]1C
- pEC50 (Plasmodium falciparum [1]): 6.33
- CC50 [2]: > 10 µM
- pEC50 (Plasmodium falciparum [3]): 6.14

Structure (SMILES): OC1(c2ccc(Br)cc2)CCN(C2CCN(Cc3ccccc3)CC2)CC1
- pEC50 (Plasmodium falciparum [1]): 6.36
- CC50 [2]: 9.26 µM
- pEC50 (Plasmodium falciparum [3]): 6.74

Structure (SMILES): COc1cc(NC(C)CCCN(Cc2ccc(N(C)C)cc2)S(=O)(=O)c2cccc3ccccc23)c2ncccc2c1 (centres undefined)
- pEC50 (Plasmodium falciparum [1]): 6.19
- CC50 [2]: > 13.9 µM
- pEC50 (Plasmodium falciparum [3]): 6.09

Structure (SMILES): CC(NS(=O)(=O)c1ccccc1)C(=O)NC1CCCC1 (centres undefined)
- pEC50 (Plasmodium falciparum [1]): 5.34
- CC50 [2]: > 100 µM
- pEC50 (Plasmodium falciparum [3]): < 5.36

Structure (SMILES): CCOC(=O)c1ccc2nc3c(nc2c1)C(=O)c1ccccc1C3=O
- pEC50 (Plasmodium falciparum [1]): 7.63
- CC50 [2]: 0.512 µM
- pEC50 (Plasmodium falciparum [3]): 7.57

Structure (SMILES): COc1ccccc1NC1=CC(=NS(=O)(=O)c2cccs2)c2ccccc2C1=O
- pEC50 (Plasmodium falciparum [1]): 6.04
- CC50 [2]: 19.7 µM
- pEC50 (Plasmodium falciparum [3]): 5.97

Structure (SMILES): CN(C)c1cc[n+](OC(=O)N2CCCCC2)cc1
- pEC50 (Plasmodium falciparum [1]): < 6.34
- CC50 [2]: > 10 µM
- pEC50 (Plasmodium falciparum [3]): 6.88

Structure (SMILES): CCOc1ccc(Nc2nc(NCc3ccco3)c3ccccc3n2)cc1
- pEC50 (Plasmodium falciparum [1]): 6.28
- CC50 [2]: 11.6 µM
- pEC50 (Plasmodium falciparum [3]): 6.54

Structure (SMILES): Brc1ccc(-c2cn3c([n+]2Cc2ccccc2)SCCC3)cc1
- pEC50 (Plasmodium falciparum [1]): 5.61
- CC50 [2]: 53.3 µM
- pEC50 (Plasmodium falciparum [3]): 6.38

Structure (SMILES): CN(CCCNc1ccnc2cc(Cl)ccc12)C(=O)c1cc(Cl)cc(Cl)c1
- pEC50 (Plasmodium falciparum [1]): 6.34
- CC50 [2]: > 10 µM
- pEC50 (Plasmodium falciparum [3]): 6.63

Structure (SMILES): CCCCCCCc1ccc(-c2nnc(-c3ccc([N+](=O)[O-])cc3)o2)cc1
- pEC50 (Plasmodium falciparum [1]): < 6.34
- CC50 [2]: > 10 µM
- pEC50 (Plasmodium falciparum [3]): < 5.90

Structure (SMILES): CCOC(=O)C1=C(C)N(c2ccc(N(C)C)cc2)C(C)=C(C(=O)OCC)C1c1ccc(Br)cc1
- pEC50 (Plasmodium falciparum [1]): 6.05
- CC50 [2]: 19.6 µM
- pEC50 (Plasmodium falciparum [3]): < 5.95

Structure (SMILES): CCC(C)NC(=O)C1CSC(c2cccc(F)c2)N1C(=O)c1cc(OC)c(OC)c(OC)c1 (centres undefined)
- pEC50 (Plasmodium falciparum [1]): 7.53
- CC50 [2]: > 0.654 µM
- pEC50 (Plasmodium falciparum [3]): < 5.90

Structure (SMILES): Cn1nc(C(=O)NCc2ccc(F)cc2)c2c1CCC(N1CCC(CO)CC1)C2 (centres undefined)
- pEC50 (Plasmodium falciparum [1]): < 6.34
- CC50 [2]: > 10 µM
- pEC50 (Plasmodium falciparum [3]): < 5.90

Structure (SMILES): CCOC(=O)C1(CC2CCCCO2)CCN(C(=O)Nc2cccc(SC)c2)CC1 (centres undefined)
- pEC50 (Plasmodium falciparum [1]): 5.34
- CC50 [2]: > 100 µM
- pEC50 (Plasmodium falciparum [3]): < 4.90

Structure (SMILES): CCN(CC)c1ccc(NC(=O)C2Cc3ccccc3CN2S(=O)(=O)c2ccc(F)cc2)cc1 (centres undefined)
- pEC50 (Plasmodium falciparum [1]): 5.34
- CC50 [2]: > 100 µM
- pEC50 (Plasmodium falciparum [3]): 5.13

Structure (SMILES): O=C(NCCCCNc1ccnc2cc(Cl)ccc12)c1cccc(Br)c1
- pEC50 (Plasmodium falciparum [1]): 6.34
- CC50 [2]: > 10 µM
- pEC50 (Plasmodium falciparum [3]): 6.37

Structure (SMILES): Oc1ccccc1-c1nc2sc(-c3ccccc3O)nc2s1
- pEC50 (Plasmodium falciparum [1]): 6.33
- CC50 [2]: > 10 µM
- pEC50 (Plasmodium falciparum [3]): < 6.00

Structure (SMILES): Cc1ccc(C)c(Nc2nc3c(s2)CCCC3)c1
- pEC50 (Plasmodium falciparum [1]): 5.35
- CC50 [2]: > 100 µM
- pEC50 (Plasmodium falciparum [3]): < 4.90

Structure (SMILES): COC(=O)C1=CNC=C(C(=O)OC)C1c1cc(OC)c(OC)c(OC)c1
- pEC50 (Plasmodium falciparum [1]): 5.35
- CC50 [2]: > 100 µM
- pEC50 (Plasmodium falciparum [3]): 5.05

Structure (SMILES): CCn1cc(C(=O)NCCC2=CCCCC2)c(=O)c2cc(S(=O)(=O)N(C)C)ccc21
- pEC50 (Plasmodium falciparum [1]): < 6.35
- CC50 [2]: > 10 µM
- pEC50 (Plasmodium falciparum [3]): < 5.90

Structure (SMILES): CCc1cc(C(=O)N2CCC[C@@H]3CN(C(=O)c4ccc(F)cc4)CC[C@@H]32)n(C)n1
- pEC50 (Plasmodium falciparum [1]): 5.33
- CC50 [2]: > 100 µM
- pEC50 (Plasmodium falciparum [3]): < 4.90

Structure (SMILES): O=C1CN=C(c2ccccc2Cl)c2cc(Cl)ccc2N1Cc1cccc([N+](=O)[O-])c1
- pEC50 (Plasmodium falciparum [1]): < 5.33
- CC50 [2]: > 100 µM
- pEC50 (Plasmodium falciparum [3]): < 5.35

Structure (SMILES): COc1ccc(-c2cnnc(NN=Cc3ccc([N+](=O)[O-])o3)n2)cc1
- pEC50 (Plasmodium falciparum [1]): < 6.33
- CC50 [2]: > 10 µM
- pEC50 (Plasmodium falciparum [3]): < 5.90

Structure (SMILES): Cc1cc(NC2CCCCC2)nc(NCc2ccccc2)n1
- pEC50 (Plasmodium falciparum [1]): 6.44
- CC50 [2]: 7.87 µM
- pEC50 (Plasmodium falciparum [3]): 6.53

Structure (SMILES): O=C1N(c2ccccc2)C[C@@H]2C[C@@H](c3ccc(C#CCCO)cc3)N3CCC[C@@]123
- pEC50 (Plasmodium falciparum [1]): 6.12
- CC50 [2]: 16.8 µM
- pEC50 (Plasmodium falciparum [3]): 6.08

Structure (SMILES): COC(=O)c1ccccc1NC(=O)CN(C)c1nc(-c2ccc(OC)cc2)no1
- pEC50 (Plasmodium falciparum [1]): 6.35
- CC50 [2]: > 10 µM
- pEC50 (Plasmodium falciparum [3]): 6.10

Structure (SMILES): CC[N+](C)(CC)CCSc1nc2ccccc2c(=S)n1-c1ccc(OC)cc1
- pEC50 (Plasmodium falciparum [1]): 6.35
- CC50 [2]: > 10 µM
- pEC50 (Plasmodium falciparum [3]): 6.55

Structure (SMILES): CCCCNCCOCCOc1ccc(Br)cc1
- pEC50 (Plasmodium falciparum [1]): 5.79
- CC50 [2]: 35.7 µM
- pEC50 (Plasmodium falciparum [3]): < 4.93

Structure (SMILES): CN(Cc1cc2ccc(F)cc2n(CCN2CCCCC2)c1=O)CC1COCCO1 (centres undefined)
- pEC50 (Plasmodium falciparum [1]): 5.34
- CC50 [2]: > 100 µM
- pEC50 (Plasmodium falciparum [3]): < 4.90

Structure (SMILES): CCOc1cccc2oc(=O)c(C(=O)Nc3cc(C(C)(C)C)on3)cc12
- pEC50 (Plasmodium falciparum [1]): < 5.34
- CC50 [2]: > 100 µM
- pEC50 (Plasmodium falciparum [3]): < 4.93

Structure (SMILES): CCN1CCN(c2cc(C)c3cc(NC(=O)c4cc(OC)cc(OC)c4)ccc3n2)CC1
- pEC50 (Plasmodium falciparum [1]): 6.23
- CC50 [2]: 12.9 µM
- pEC50 (Plasmodium falciparum [3]): 6.74

Structure (SMILES): COc1cc2nc(SCC(C)C)n(CCCn3ccnc3)c(=N)c2cc1OC
- pEC50 (Plasmodium falciparum [1]): 6.03
- CC50 [2]: 19.9 µM
- pEC50 (Plasmodium falciparum [3]): 6.09

Structure (SMILES): C/C=C/[P+](c1ccccc1)(c1ccccc1)c1ccccc1
- pEC50 (Plasmodium falciparum [1]): 6.89
- CC50 [2]: 2.81 µM
- pEC50 (Plasmodium falciparum [3]): 7.28

Structure (SMILES): C=C[C@H]1CN2CC[C@H]1C[C@H]2[C@H](OC(=O)CCCC)c1ccnc2ccccc12
- pEC50 (Plasmodium falciparum [1]): 6.34
- CC50 [2]: > 10 µM
- pEC50 (Plasmodium falciparum [3]): 6.03

Structure (SMILES): OC1(c2ccc(Cl)c(C(F)(F)F)c2)CCN(CCOC2c3ccccc3CSc3ccc(Cl)cc32)CC1 (centres undefined)
- pEC50 (Plasmodium falciparum [1]): 6.05
- CC50 [2]: 19.2 µM
- pEC50 (Plasmodium falciparum [3]): 5.99

Structure (SMILES): C/C(Cl)=C/C[N+]1(CC#Cc2cccc3ccccc23)CCOCC1
- pEC50 (Plasmodium falciparum [1]): 6.35
- CC50 [2]: > 10 µM
- pEC50 (Plasmodium falciparum [3]): 6.17

Structure (SMILES): CCN(C(C)=O)C1=C(N2CCOCC2)C(=O)c2ccccc2C1=O
- pEC50 (Plasmodium falciparum [1]): 6.73
- CC50 [2]: 4.09 µM
- pEC50 (Plasmodium falciparum [3]): 6.77

Structure (SMILES): O=C(CN1CCCC1)Nc1c2c(nc3c1CCC3)CCC2
- pEC50 (Plasmodium falciparum [1]): < 6.34
- CC50 [2]: > 10 µM
- pEC50 (Plasmodium falciparum [3]): < 5.90

Structure (SMILES): CCOC(=O)C1=C(c2ccccc2)N=c2sc(=Cc3c(C)n(Cc4ccc(F)cc4)c4ccccc34)c(=O)n2C1c1cccc(OC)c1OC (centres undefined)
- pEC50 (Plasmodium falciparum [1]): 5.34
- CC50 [2]: > 100 µM
- pEC50 (Plasmodium falciparum [3]): 5.95

Structure (SMILES): CC(C)(C)C1=NN(CC(=O)NCCc2c[nH]cn2)C(=O)c2cc3ccccc3n2C1
- pEC50 (Plasmodium falciparum [1]): < 6.21
- CC50 [2]: > 13.2 µM
- pEC50 (Plasmodium falciparum [3]): < 5.90

Structure (SMILES): N#Cc1ccccc1Cn1ccc(=NCc2ccccc2)cc1
- pEC50 (Plasmodium falciparum [1]): < 6.33
- CC50 [2]: > 10 µM
- pEC50 (Plasmodium falciparum [3]): 5.98

Structure (SMILES): N#C/C(=C\c1cn(Cc2ccccc2Cl)c2ccccc12)c1nn(CCO)c(N)c1C#N
- pEC50 (Plasmodium falciparum [1]): 6.35
- CC50 [2]: > 10 µM
- pEC50 (Plasmodium falciparum [3]): 6.30

Structure (SMILES): O=C(c1cc2nc(-c3ccccc3)cc(C(F)(F)F)n2n1)N1CCN(Cc2ccccc2)CC1
- pEC50 (Plasmodium falciparum [1]): 5.34
- CC50 [2]: > 100 µM
- pEC50 (Plasmodium falciparum [3]): 5.53

Structure (SMILES): CN1CCC(N2CCC(Oc3cccc(C(=O)NCCC4=CCCCC4)c3)CC2)CC1
- pEC50 (Plasmodium falciparum [1]): 6.03
- CC50 [2]: 20.7 µM
- pEC50 (Plasmodium falciparum [3]): 6.11

Structure (SMILES): O=C(c1ccc2ccccc2c1)N1CCc2ccccc21
- pEC50 (Plasmodium falciparum [1]): 5.34
- CC50 [2]: > 100 µM
- pEC50 (Plasmodium falciparum [3]): 5.46

Structure (SMILES): Cc1ccc(S(=O)(=O)Oc2ccc(C=NN=C(N)N)cc2)cc1
- pEC50 (Plasmodium falciparum [1]): 6.20
- CC50 [2]: 14.1 µM
- pEC50 (Plasmodium falciparum [3]): 6.81

Structure (SMILES): C[n+]1cc(-c2ccc3cccc([N+](=O)[O-])c3n2)cc2ccccc21
- pEC50 (Plasmodium falciparum [1]): 6.35
- CC50 [2]: > 10 µM
- pEC50 (Plasmodium falciparum [3]): 6.44
